In ChEMBL document CHEMBL2177076, “Rational design of potent non-nucleoside inhibitors of HIV-1 reverse transcriptase” (J Med Chem, 2012):
Active and inactive are the calls of the source. The rule behind the calls is not given here.

What was measured:
[1] = test system: Human immunodeficiency virus 1; experiment: Antiviral activity against NNRTI-resistant HIV1 harboring reverse transcriptase Y181I/V179F double mutant infected in human MT4 cells assessed as inhibition of viral replication after 72 hrs by HeLa-CD4-LTR-beta-gal assay; assay type: functional, organism-based
[2] = test system: Human immunodeficiency virus 1; experiment: Antiviral activity against NNRTI-resistant HIV1 harboring reverse transcriptase Y188L mutant infected in human MT4 cells assessed as inhibition of viral replication after 72 hrs by HeLa-CD4-LTR-beta-gal assay; assay type: functional, organism-based; conditions: Human immunodeficiency virus 1, MT4, 72 h
[3] = test system: Human immunodeficiency virus 1; experiment: Antiviral activity against NNRTI-resistant HIV1 harboring reverse transcriptase Y181C/K103N double mutant infected in human MT4 cells assessed as inhibition of viral replication after 72 hrs by HeLa-CD4-LTR-beta-gal assay; assay type: functional, organism-based
[4] = test system: Human immunodeficiency virus 1; experiment: Antiviral activity against NNRTI-resistant HIV1 harboring reverse transcriptase Y181C/V179F double mutant infected in human MT4 cells assessed as inhibition of viral replication after 72 hrs by HeLa-CD4-LTR-beta-gal assay; assay type: functional, organism-based
[5] = test system: Human immunodeficiency virus 1; experiment: Antiviral activity against NNRTI-resistant HIV1 harboring reverse transcriptase Y181C/F227C double mutant infected in human MT4 cells assessed as inhibition of viral replication after 72 hrs by HeLa-CD4-LTR-beta-gal assay; assay type: functional, organism-based
[6] = test system: Human immunodeficiency virus 1; experiment: Antiviral activity against NNRTI-resistant HIV1 harboring reverse transcriptase K103N mutant infected in human MT4 cells assessed as inhibition of viral replication after 72 hrs by HeLa-CD4-LTR-beta-gal assay; assay type: functional, organism-based; conditions: Human immunodeficiency virus 1, MT4, 72 h
[7] = test system: Human immunodeficiency virus 1; experiment: Antiviral activity against HIV1 expressing wild type reverse transcriptase infected in human MT4 cells assessed as inhibition of viral replication after 72 hrs by HeLa-CD4-LTR-beta-gal assay; assay type: functional, organism-based; conditions: Human immunodeficiency virus 1, MT4, 72 h
[8] = test system: Human immunodeficiency virus 1; experiment: Antiviral activity against NNRTI-resistant HIV1 harboring reverse transcriptase Y181C mutant infected in human MT4 cells assessed as inhibition of viral replication after 72 hrs by HeLa-CD4-LTR-beta-gal assay; assay type: functional, organism-based; conditions: Human immunodeficiency virus 1, MT4, 72 h
[9] = test system: Human immunodeficiency virus 1; experiment: Selectivity ratio of EC50 for NNRTI-resistant HIV1 harboring reverse transcriptase Y181V mutant to EC50 for HIV1 expressing wild type reverse transcriptase; assay type: functional
[10] = test system: Human immunodeficiency virus 1; experiment: Ratio of EC50 for HIV1 expressing wild type reverse transcriptase in presence of human serum albumin and human alpha-1 acid glycoprotein to EC50 for HIV1 expressing wild type reverse transcriptase; assay type: functional
[11] = Dissociation constant, pKa of the compound; assay type: physicochemical
Rattus norvegicus = experiment: AUC (0 to infinity) in Sprague-Dawley rat at 5 mg/kg, po; assay type: ADME, organism-based, Plasma; set-up: time infinity, dose 5 mg/kg, route oral; conditions: in vivo
[12] = test system: Human immunodeficiency virus 1; experiment: Antiviral activity against NNRTI-resistant HIV1 harboring reverse transcriptase Y181I mutant infected in human MT4 cells assessed as inhibition of viral replication after 72 hrs by HeLa-CD4-LTR-beta-gal assay; assay type: functional, organism-based
[13] = Oral bioavailability in dog at 5 mg/kg; assay type: ADME, organism-based, Canis lupus familiaris; conditions: in vivo
[14] = test system: Human immunodeficiency virus 1; experiment: Antiviral activity against NNRTI-resistant HIV1 harboring reverse transcriptase Y181V mutant infected in human MT4 cells assessed as inhibition of viral replication after 72 hrs by HeLa-CD4-LTR-beta-gal assay; assay type: functional, organism-based
Cynomolgus monkey = experiment: AUC (0 to infinity) in cynomolgus monkey at 5 mg/kg, po; assay type: ADME, organism-based, Macaca fascicularis, Plasma; set-up: time infinity, dose 5 mg/kg, route oral; conditions: in vivo
[15] = Half life in dog at 1 mg/kg, iv; assay type: ADME, organism-based, Canis lupus familiaris; set-up: dose 1 mg/kg, route intravenous; conditions: in vivo
[16] = Half life in mouse at 1 mg/kg, iv; assay type: ADME, organism-based; set-up: dose 1 mg/kg, route intravenous; conditions: in vivo
[17] = Volume of distribution at steady state in cynomolgus monkey at 1 mg/kg, iv; assay type: ADME, organism-based, Macaca fascicularis; set-up: dose 1 mg/kg, route intravenous; conditions: in vivo, read-out: Vdss
[18] = Volume of distribution at steady state in Sprague-Dawley rat at 1 mg/kg, iv; assay type: ADME, organism-based; set-up: dose 1 mg/kg, route intravenous; conditions: in vivo, read-out: Vdss
[19] = Clearance in mouse at 1 mg/kg, iv; assay type: ADME, organism-based; set-up: dose 1 mg/kg, route intravenous; conditions: in vivo
Canis familiaris = experiment: AUC (0 to infinity) in dog at 5 mg/kg, po; assay type: ADME, organism-based, Canis lupus familiaris, Plasma; set-up: time infinity, dose 5 mg/kg, route oral; conditions: in vivo
[20] = Half life in cynomolgus monkey at 1 mg/kg, iv; assay type: ADME, organism-based, Macaca fascicularis; set-up: dose 1 mg/kg, route intravenous; conditions: in vivo
Mus musculus = experiment: AUC (0 to infinity) in mouse at 5 mg/kg, po; assay type: ADME, organism-based, Plasma; set-up: time infinity, dose 5 mg/kg, route oral; conditions: in vivo
[21] = Clearance in Sprague-Dawley rat at 1 mg/kg, iv; assay type: ADME, organism-based; set-up: dose 1 mg/kg, route intravenous; conditions: in vivo
[22] = Oral bioavailability in cynomolgus monkey at 5 mg/kg; assay type: ADME, organism-based, Macaca fascicularis; conditions: in vivo
[23] = Clearance in cynomolgus monkey at 1 mg/kg, iv; assay type: ADME, organism-based, Macaca fascicularis; set-up: dose 1 mg/kg, route intravenous; conditions: in vivo
[24] = test system: Human immunodeficiency virus 1; experiment: Selectivity ratio of EC50 for NNRTI-resistant HIV1 harboring reverse transcriptase Y188L mutant to EC50 for HIV1 expressing wild type reverse transcriptase; assay type: functional
[25] = test system: Human immunodeficiency virus 1; experiment: Selectivity ratio of EC50 for NNRTI-resistant HIV1 harboring reverse transcriptase Y181I mutant to EC50 for HIV1 expressing wild type reverse transcriptase; assay type: functional
[26] = Clearance in dog at 1 mg/kg, iv; assay type: ADME, organism-based, Canis lupus familiaris; set-up: dose 1 mg/kg, route intravenous; conditions: in vivo
[27] = Volume of distribution at steady state in dog at 1 mg/kg, iv; assay type: ADME, organism-based, Canis lupus familiaris; set-up: dose 1 mg/kg, route intravenous; conditions: in vivo, read-out: Vdss
[28] = Volume of distribution at steady state in mouse at 1 mg/kg, iv; assay type: ADME, organism-based; set-up: dose 1 mg/kg, route intravenous; conditions: in vivo, read-out: Vdss
[29] = Oral bioavailability in Sprague-Dawley rat at 5 mg/kg; assay type: ADME, organism-based; conditions: in vivo
[30] = Oral bioavailability in mouse at 5 mg/kg; assay type: ADME, organism-based; conditions: in vivo
[31] = Half life in Sprague-Dawley rat at 1 mg/kg, iv; assay type: ADME, organism-based; set-up: dose 1 mg/kg, route intravenous; conditions: in vivo

## Cc1cc(/C=C/C#N)cc(C)c1Nc1ccnc(Nc2ccc(C#N)cc2)n1 [RILPIVIRINE]
[1]
  inhibition: inactive
[2]
  EC50: 3.7 nM
[3]
  inhibition: inactive
[4]
  inhibition: inactive
[5]
  inhibition: inactive

## CCCc1nc(Cl)c(C(=O)NCc2ccc(Cl)c(Oc3cc(Cl)cc(C#N)c3)c2F)[nH]1
[6]
  EC50: 0.4 nM
[2]
  EC50: 240 nM
[7]
  EC50: 0.3 nM
[8]
  EC50: 1.3 nM

## Cn1cncc1C(=O)NCc1ccc(Cl)c(Oc2cc(Cl)cc(C#N)c2)c1F
[6]
  EC50: 460 nM
[2]
  EC50: > 1000 nM
[7]
  EC50: 120 nM
[8]
  EC50: > 1000 nM

## Cc1cc(C#N)cc(C)c1Oc1nc(Nc2ccc(C#N)cc2)nc(N)c1Br [ETRAVIRINE]
[6]
  EC50: 0.4 nM
[1]
  inhibition: inactive
[2]
  EC50: 0.9 nM
[3]
  inhibition: inactive
[9]
  Ratio EC50: 83
[10]
  Ratio EC50: 13
[7]
  EC50: 0.6 nM
[8]
  EC50: 2.4 nM
[4]
  inhibition: inactive
[5]
  inhibition: inactive

## N#Cc1cc(Cl)cc(Oc2c(Cl)ccc(CNC(=O)c3cc4ccccc4o3)c2F)c1
[6]
  EC50: 380 nM
[2]
  EC50: > 1000 nM
[7]
  EC50: 52 nM
[8]
  EC50: 340 nM

## N#Cc1cc(Cl)cc(Oc2c(Cl)ccc(CNC(=O)c3[nH]c(N)nc3Cl)c2F)c1
[2]
  EC50: 0.9 nM
[7]
  EC50: 0.1 nM

## N#Cc1cc(Cl)cc(Oc2c(Cl)ccc(CNC(=O)c3[nH]c(CO)nc3Cl)c2F)c1
[2]
  EC50: 24 nM
[7]
  EC50: 0.3 nM
[8]
  EC50: 1.2 nM

## Cc1nc(Cl)c(C(=O)NCc2ccc(Cl)c(Oc3cc(Cl)cc(C#N)c3)c2F)[nH]1
[2]
  EC50: 11 nM
[7]
  EC50: 0.2 nM
[8]
  EC50: 0.3 nM

## CCc1nc(Cl)c(C(=O)NCc2ccc(Cl)c(Oc3cc(Cl)cc(C#N)c3)c2F)[nH]1
[2]
  EC50: 76 nM
[7]
  EC50: 0.3 nM
[8]
  EC50: 0.8 nM

## N#Cc1cc(Cl)cc(Oc2c(Cl)ccc(CNC(=O)c3[nH]cnc3Br)c2F)c1
[2]
  EC50: 7.1 nM
[7]
  EC50: 0.1 nM
[8]
  EC50: 0.2 nM

## N#Cc1cc(Cl)cc(Oc2c(Cl)ccc(CNC(=O)c3cc4ccccc4[nH]3)c2F)c1
[6]
  EC50: 26 nM
[2]
  EC50: > 1000 nM
[7]
  EC50: 8.9 nM
[8]
  EC50: 58 nM

## N#Cc1cc(Cl)cc(Oc2c(Cl)ccc(CNC(=O)c3[nH]cnc3Cl)c2F)c1
[2]
  EC50: 5.6 nM
[7]
  EC50: 0.1 nM
[8]
  EC50: 0.2 nM
[11]
  pKa: 8.9

## Cc1cc(S(N)(=O)=O)ccc1NC(=O)COc1ccc(Cl)cc1C(=O)c1cc(Cl)cc(C#N)c1
[6]
  EC50: 0.5 nM
[2]
  EC50: 18 nM
[7]
  EC50: 0.3 nM
[8]
  EC50: 0.5 nM

## N#Cc1cc(Cl)cc(Oc2c(Cl)ccc(CNC(=O)c3[nH]c(O)nc3Cl)c2F)c1
[6]
  EC50: 14 nM
[2]
  EC50: > 1000 nM
[7]
  EC50: 5.3 nM
[8]
  EC50: 57 nM

## N#Cc1cc(Cl)cc(Oc2c(Cl)ccc(CNC(=O)c3ccc(S(N)(=O)=O)cc3Cl)c2F)c1
[6]
  EC50: 60 nM
[2]
  EC50: > 1000 nM
[7]
  EC50: 13 nM
[8]
  EC50: 180 nM

## O=C1Nc2ccc(Cl)cc2[C@@](C#CC2CC2)(C(F)(F)F)O1 [EFAVIRENZ]
[6]
  EC50: 20 nM
[2]
  EC50: 157 nM
[8]
  EC50: 1 nM

## N#Cc1cc(Cl)cc(Oc2c(Cl)ccc(CNC(=O)c3nc4ccccc4[nH]3)c2F)c1
[6]
  EC50: 18 nM
[2]
  EC50: > 1000 nM
[7]
  EC50: 5.1 nM
[8]
  EC50: 27 nM

## N#Cc1cc(Cl)cc(Oc2c(Cl)ccc(CNC(=O)c3cnc[nH]3)c2F)c1
[6]
  EC50: 48 nM
[2]
  EC50: > 1000 nM
[7]
  EC50: 9.7 nM
[8]
  EC50: 260 nM

## N#Cc1cc(Cl)cc(Oc2c(Br)ccc(CNC(=O)c3[nH]c(N)nc3Cl)c2F)c1
Rattus norvegicus
  AUC: 2510 ng·h/mL
[12]
  inhibition: Active
[13]
  bioavailability: 47%
[14]
  inhibition: Active
Cynomolgus monkey
  AUC: 6460 ng·h/mL
[1]
  inhibition: Active
[15]
  half-life: 4.3 h
[16]
  half-life: 3.1 h
[2]
  EC50: 0.5 nM
[3]
  inhibition: Active
[9]
  Ratio EC50: <3
[17]
  Vd: 1.8 L/kg
[18]
  Vd: 3.6 L/kg
[19]
  clearance: 8.2 mL/min/kg
Canis familiaris
  AUC: 14300 ng·h/mL
[20]
  half-life: 6.1 h
Mus musculus
  AUC: 9600 ng·h/mL
[21]
  clearance: 28.6 mL/min/kg
[22]
  bioavailability: 34%
[10]
  Ratio EC50: 71
[23]
  clearance: 4.7 mL/min/kg
[7]
  EC50: 0.1 nM
[24]
  Ratio EC50: 5
[25]
  Ratio EC50: <3
[26]
  clearance: 2.8 mL/min/kg
[27]
  Vd: 0.9 L/kg
[4]
  inhibition: Active
[28]
  Vd: 2.1 L/kg
[29]
  bioavailability: 84%
[5]; Human immunodeficiency virus 1, MT4, 72 h
  EC50: 3.2 nM
[30]
  bioavailability: 94%
[31]
  half-life: 2.2 h

## N#Cc1cc(Cl)cc(Oc2c(Cl)ccc(CNC(=O)c3[nH]cnc3C(F)(F)F)c2F)c1
[6]
  EC50: 0.7 nM
[2]
  EC50: 320 nM
[7]
  EC50: 0.1 nM
[8]
  EC50: 1.4 nM

## Cc1nc[nH]c1C(=O)NCc1ccc(Cl)c(Oc2cc(Cl)cc(C#N)c2)c1F
[6]
  EC50: 7.2 nM
[2]
  EC50: > 1000 nM
[7]
  EC50: 2.4 nM
[8]
  EC50: 15 nM
[11]
  pKa: > 12
